Assay results from US8481005B2, “Methods to prevent cytotoxicity using N-acetyl-cysteine” (priority 2006, dated 2013).

Tests used:
[1] = tested on: Jurkat T cells; test: Cell death in Jurkat T cells (PI/FITC-Annexin V); type: cell-based; conditions: 0.082M-0.0082M HEMA and/or NAC 20 mM simultaneously; overnight
Experimental: After an overnight incubation the levels of cell death in Jurkat T cells were determined using dual staining with PI/FITC-Annexin V as described previously (FIG. 19B). 10,000 events were analyzed for each sample. Similar results were obtained when apoptosis was assessed by PI staining of ethanol fixed Jurkat T cells. • 2. Decreased Levels of Full Length Caspase 9 and Caspase 3 in HEMA-Treated Keratinocytes

[2] = tested on: RAW 264.7 cells; test: Morphological changes in RAW 264.7 cells (inverted microscope); type: cell-based, murine; conditions: HEMA alone or with simultaneous NAC 20 mM, overnight
Description: Peripheral Blood Mononuclear Cells

[3] = tested on: osteoblasts; test: Cell death of osteoblasts differentiated from mesenchymal stem cells; type: cell-based
Experimental: In a subsequent study, mesenchymal stem cells were differentiated to osteoblasts in differentiation media. […] Treated osteoblasts were then removed and cell death was determined using FITC-Annexin V and PI staining.

[4] = tested on: odontoblasts; test: ALP staining of rat odontoblasts; type: cell-based; conditions: 0.00328M HEMA; overnight, 7 days or 14 days
Experimental: Restoring the function of cells is also very important. Therefore, ALP staining was performed as a measure of odontoblast function. […] Following this incubation, cells were washed twice with PBS and incubated with 120 mM of Tris buffer (pH=8.4) containing 0.9 mM Napthol AS-M Phosphate and 1.8 mM Fast Red TR for 30 minutes at 37° C. Afterwards the cells were washed three times with PBS and then fixed with 1 ml cold ethanol (100%) for about 30 minutes. The stained cultures were digitized using a scanner.

[5] = tested on: HEp2 cells co-cultured with PBMCs; test: VEGF in co-cultures of HEMA/NAC treated HEp2 cells with PBMCs (multiplex cytokine array); type: cell-based, human; set-up: unit not given here
[6] = tested on: GAPDH; test: GAPDH protein in dental pulp stromal cells (KDalert GAPDH assay kit); type: cell-based; conditions: HEMA (0.082M) alone or with NAC 20 mM, 4 hours
Experimental: After 4 hours of incubation the protein levels of GAPDH were determined using a KDalert GAPDH assay kit (Ambion). This assay is a fluorescent based assay which measures the conversion of NAD+ to NADH catalyzed by GAPDH.

[7] = tested on: human mesenchymal stem cells; test: VEGF secretion of human mesenchymal stem cells (ELISA); type: cell-based; conditions: HEMA alone or with NAC 20 mM, 4 hours, then overnight
[8] = tested on: peripheral blood mononuclear cells; test: PI/Annexin V apoptosis in peripheral blood mononuclear cells; type: cell-based, human; conditions: PBMCs, overnight
Experimental: PBMCs were isolated and obtained after Ficoll-hypaque centrifugation as described in Jewett et al., 159, J. Immunol. (1997) which is hereby incorporated by reference. Specifically, human peripheral blood was obtained from normal donors in the laboratory as per guidelines of the UCLA Human Subject Protection Committee. The blood was fractionated on Ficoll-Hypaque, and the buffy layer was harvested, washed and resuspended in media.
Peripheral blood mononuclear cells were then cultured in RPMI 1640 supplemented with 10% FCS, 1% penicillin-streptomycin, 1% sodium pyruvate and 1% non-essential amino acids.
Cells were simultaneously treated in the presence and absence of NAC overnight. […] It is quite well known that apoptotic cells initially lose their size and gain in granularity when they undergo cell death. These changes are one hallmark of apoptosis.

[9] = tested on: human dental pulp stromal cells; test: VEGF by ELISA, human dental pulp stromal cells, NAC versus vitamin E (Table 5); type: cell-based; conditions: 4 hours
Experimental: Following the 4 hour incubation, cells were analyzed for apoptosis using FTIC-Annexin V and PI.
Dental pulp stromal cells were then treated as described in the preceding paragraph with supernatants removed and assayed for VEGF levels by ELISA following the 4 hour incubation.

[10] = tested on: GAPDH mRNA; test: GAPDH mRNA in dental pulp stromal cells (RT-PCR); type: cell-based; conditions: HEMA alone or with NAC 20 mM, 4 hours
Experimental: The role of GAPDH in HEMA-mediated cytotoxicity was also evaluated. […] In comparison no significant decrease in β-actin and collagen-1 under the same experimental conditions could be seen.

[11] = tested on: human smooth muscle cells; test: VEGF secretion of human smooth muscle cells (ELISA); type: cell-based; conditions: HEMA (0.082M) alone or with NAC 20 mM, 4 hours, then overnight
[12] = tested on: Caspase 3; test: Full length caspase 3 in keratinocytes; type: cell-based; conditions: about 8 hours, NAC 20 mM
Description: Roles of NFkB and GAPDH in HEMA-Mediated Cell Death

[13] = tested on: mesenchymal stem cells; test: Cell death of mesenchymal stem cells (FITC-Annexin V and PI); type: cell-based
Description: Treated mesenchymal stem cells were then removed and cell death determined using FITC-Annexin V and PI staining.

[14] = tested on: human dental pulp stromal cells; test: VEGF release from human dental pulp stromal cells (Table 4); type: cell-based
Experimental: The cells were then grown in media containing β-glycerophosphate and ascorbic acid until they reached confluency. […] Supernatants were measured for VEGF release.

[15] = tested on: human dental pulp stromal cells; test: Human dental pulp stromal cells, 4 hour treatment: VEGF ELISA and apoptosis; type: cell-based; conditions: HEMA alone or with NAC 20 mM, then overnight
Experimental: After this treatment cells were washed and incubated overnight.

[16] = tested on: HaCaT cells; test: PI/Annexin V cell death in HaCaT skin keratinocytes; type: cell-based; conditions: HEMA 0.082M to 0.00164M alone or with NAC 20 mM, overnight
Experimental: Ten thousand events were analyzed for each sample. (FIG. 5)

[17] = tested on: Caspase 3; test: Caspase 3 induction in Jurkat cells; type: cell-based; conditions: HEMA alone or with NAC 20 mM
[18] = tested on: HEp2 cells co-cultured with PBMCs; test: VEGF in co-cultures of HEMA/NAC treated HEp2 cells with PBMCs (multiplex cytokine array); type: cell-based, human; set-up: unit not given here; remark: listed apart in the source
Experimental: Treatment with NAC inhibits HEMA-mediated cell death and cytotoxicity. Thus, its ability to protect the function of cells in the presence of HEMA was also evaluated further. […] The cells were trypsinized and washed 4 times with 1×PBS before they were co-cultured with PBMCs obtained from a healthy individual. A 4:1 ratio of effector to target cells (PBMC:HEp2) were used in these cultures. PBMCs were treated with and without IL-2 before they were co-cultured with HEp-2 cells. The supernatants were then removed from the co-cultures after an overnight incubation and analyzed using the FAST QUANT multiplex cytokine array kit to determine the levels of secreted cytokines.

[19] = 0.0164M HEMA alone (HEMA) or also treated with NAC (NAC)

For `C=C(C)C(=O)OCCO` [HEMA, hydroxyethyl methacrylate], the apoptotic cell death [1] was “undergo apoptotic cell death”, the “morphological changes (decreased size, blebbing, apoptotic bodies)” value [2] was “morphological changes indicative of apoptosis” and the “cells that underwent cell death” value ([3]; osteoblasts, 0.0164M HEMA) was 49.7%. The “ALP staining (odontoblast function)” value [4] was “significantly less staining”, the VEGF ([5]; HEp2 +0.00164M HEMA, −/+NAC, Patient PBMC +IL-2) was 7760 and the VEGF ([5]; HEp2 +0.00164M HEMA, −/+NAC, Patient PBMC −IL-2) was 6550. For the same molecule, the VEGF ([5]; HEp2 +0.0164M HEMA, −/+NAC 20 mM, about 18 hours, Patient PBMC −IL-2) was 1161, the VEGF ([5]; HEp2 +0.0164M HEMA, −/+NAC, Patient PBMC +IL-2) was 379 and the GAPDH protein expression [6] was “significant decrease in GAPDH protein expression”. For the same molecule, the VEGF secretion [7] was “significantly decreased secretion of VEGF”, the “cells in the stage of late apoptosis (PI/Annexin V)” value (“cells in the stage” below) ([8]; 0.0082M HEMA alone (HEMA) or also treated with NAC (NAC)) was 39% and the “cells in the stage” value [8, 19] was “about 45%”. For the same molecule, the “VEGF levels by ELISA, Human dental pulp stromal cells” value (“VEGF levels by ELISA” below) ([9]; HEMA 0.00164M, alone or with NAC and/or vitamin E) was 57.26, the VEGF levels by ELISA, Human dental pulp stromal cells ([9]; HEMA 0.0082M, alone or with NAC and/or vitamin E) was 72.6 pg/mL and the “VEGF levels by ELISA” value ([9]; HEMA 0.0164M, alone or with NAC (20 mM) and/or vitamin E (5 mM)) was 73.79. For the same molecule, the “GAPDH mRNA” value [10] was “significant inhibition of GAPDH mRNA”, the VEGF secretion [11] was “significantly reduced VEGF secretion” and the “levels of full length caspase 3 (processing of caspase 3)” value [12] was “decrease in the levels of full length caspase 3”. For the same molecule, the “cells that underwent cell death” value ([13]; mesenchymal stem cells, 0.0164M HEMA) was 86.1%, the “Human dental pulp stromal cells (VEFG secretion)” value ([14]; HEMA 0.00164M, alone or with NAC) was 163.7 pg/mL and the “Human dental pulp stromal cells (VEFG secretion)” value ([14]; HEMA 0.0082M, alone or with NAC) was 125.1 pg/mL. For the same molecule, the “Human dental pulp stromal cells (VEFG secretion)” value ([14]; HEMA 0.0164M, alone or with NAC) was 113.4 pg/mL, the VEGF secretion [15] was “large effects” and the cell death [15] was “large effects”. For the same molecule, the “apoptotic cell death (PI/Annexin V)” value [16] was “dose dependent induction of apoptotic cell death”, the “Caspase 3 induction” value [17] was “increase in Caspase 3 induction” and the VEGF ([18]; HEp2 +0.00164M HEMA, −/+NAC, Control PBMC +IL-2) was 6923. For the same molecule, the VEGF ([18]; HEp2 +0.00164M HEMA, −/+NAC, Control PBMC −IL-2) was 6640, the VEGF ([18]; HEp2 +0.00164M HEMA, −/+NAC, No PBMC) was 7139 and the VEGF ([18]; HEp2 +0.0164M HEMA, −/+NAC, Control PBMC +IL-2) was 323. The VEGF ([18]; HEp2 +0.0164M HEMA, −/+NAC, Control PBMC −IL-2) was 582 and the VEGF ([18]; HEp2 +0.0164M HEMA, −/+NAC, No PBMC) was 294.

With `CC(=O)N[C@@H](CS)C(=O)O` [NAC, N-acetyl-cysteine] the apoptotic cell death [1] was “significantly blocked”, the “morphological changes (decreased size, blebbing, apoptotic bodies)” value [2] was “inhibited the occurrence of these morphological changes” and the “prevention of HEMA-mediated cell death” value ([3]; NAC 20 mM, 18 hours) was “can prevent HEMA-mediated cell death”. The “ALP staining (odontoblast function)” value [4] was “positive for ALP staining”, the VEGF ([5]; HEp2 −HEMA (+NAC 20 mM), Patient PBMC −IL-2) was 5648 and the VEGF ([5]; HEp2 −HEMA (+NAC), Patient PBMC +IL-2) was 5805. The GAPDH protein expression [6] was “preventing the decrease in GAPDH protein expression”, the VEGF secretion [7] was “prevented the HEMA-mediated decrease” and the “cells in the stage” value [8, 19] was “about 25%”. The “VEGF levels by ELISA” value ([9]; no HEMA, NAC (20 mM) and/or vitamin E (5 mM)) was 1532.4, the “GAPDH mRNA” value [10] was “prevented this inhibition” and the VEGF secretion [11] was “could be reversed”. The “levels of full length caspase 3 (processing of caspase 3)” value [12] was “this decrease is inhibited”, the “prevention of HEMA-mediated cell death” value ([13]; NAC 20 mM, 18 hours) was “can prevent HEMA-mediated cell death” and the “Human dental pulp stromal cells (VEFG secretion)” value ([14]; NAC alone, no HEMA) was 1804.1 pg/mL. The VEGF secretion [15] was “strongly if not totally ameliorated”, the cell death [15] was “strongly if not totally ameliorated” and the “apoptotic cell death (PI/Annexin V)” value [16] was “considerably decreased the percentages of cells positive for PI/Annexin V staining”. For the same molecule, the “Caspase 3 induction” value [17] was “decreased the induction of caspase 3 expression”, the VEGF ([18]; HEp2 −HEMA (+NAC), Control PBMC +IL-2) was 5376 and the VEGF ([18]; HEp2 −HEMA (+NAC), Control PBMC −IL-2) was 5260. For the same molecule, the VEGF ([18]; HEp2 −HEMA (+NAC), No PBMC) was 4714.
